Assays:
[1] = tested on: sheep blowflies (Lucilia cuprina); experiment: Blowfly toxicity assay, injection; format: in vivo; details: injected into ventro-lateral thoracic region, lethality after 24 h; three tests, n = 10 flies per dose
Description: Injection assays using sheep blowflies (Lucilia cuprina) were performed as described. Briefly, peptides were dissolved in insect-saline and injected into the ventro-lateral thoracic region of blowflies (mass 16.5–27.0 mg). Thereafter, flies were individually housed in 2 mL tubes and lethality determined after 24 h.
(§1) Tests for oral toxicity in blowflies were performed as described. In short, peptides were dissolved in 5% sucrose and 3 μL of this solution was applied to the inside of a 2 mL tube containing a single fly (mass 16.8–25.3 mg). Flies were kept in the tube overnight without additional food or water until the sucrose solution was consumed. Thereafter, flies were transferred into 250 mL plastic containers and provided with a sugar cube and wet cotton wool. Each box housed 10 flies that received the same treatment. Oral toxicity was determined three days after the oral application. For both injection and oral toxicity assays, three tests were carried for each peptide, and for each test several doses of peptide (n = 10 flies per dose) were used along with appropriate controls (i.e., insect saline or 5% sucrose solution; n = 20–40). LD50 values were calculated as described previously.

[2] = Susceptibility to scrambling of Hv1a and diselenide analogs (buffer with or without GSH); format: physicochemical; details: for susceptibility to scrambling in the presence of GSH: 1 equivalent GSH; for Correctly Folded Toxin, In Buffer, pH 7.2: 45 μL of 250 μM peptide + 45 μL 0.1 M phosphate buffer pH 7.2, 24 h; for Correctly Folded Toxin, In Buffer, pH 7.2 / Correctly Folded Toxin, With 1 Equivalent GSH, pH 7.2: quenched with 1% TFA, analytical RP-HPLC; for Correctly Folded Toxin, With 1 Equivalent GSH, pH 7.2: 45 μL of 250 μM peptide + 45 μL 0.1 M phosphate buffer pH 7.2 containing 250 μM GSH, 24 h
Description: Peptide (45 μL of a 250 μM solution) was combined with either 45 μL of buffer (0.1 M phosphate buffer, pH 7.2) or 45 μL of buffer containing 250 μM GSH. After 24 h, the reaction was quenched with 1% TFA and the solution analysed using analytical RP-HPLC.

[3] = Midgut permeation assay (Ussing chamber); format: in vitro ADME, Manduca sexta; details: 10 µM in luminal fluid, separate occasion / different batch of M. sexta, comparison with 1,4-SeSe-Hv1a, 1 h at 30 °C, HPLC/ELISA/MALDI-TOF MS, mean ± S.E.M, n = 11–12 tissues
Description: Flat-sheet preparations of the anterior midgut of Manduca sexta were mounted in Ussing-type chambers as previously described [39]. The lumen to hemolymph flux was determined by applying various concentrations of peptide (0.1, 1, and 10 μM) to the luminal side of the tissue and taking aliquots of saline from the hemolymph side after 1 h incubation at 30 °C (n = 9–19 tissues per peptide and dose). […] To check for damage to gut tissues that would allow leakage of peptides through the tissues, 1% amaranth, which is not absorbed across gut epithelia, was added to the luminal side of the tissue. Samples were analysed using a combination of liquid chromatography, enzyme-linked immunosorbent assay (ELISA), and matrix-assisted laser desorption/ionisation time-of-flight mass spectrometry (MALDI-TOF MS) to quantify the amount of intact peptide present on the hemolymph side of the tissue [39].
Chromatography was performed using a Beckman System Gold chromatographic system (Beckman Coulter Ltd., High Wycombe, UK) consisting of a dual pump programmable solvent module 126 and System Gold UV detector module 166. […] Samples were eluted using a linear gradient of 10–60% ACN/0.1% TFA over 50 min at a flow rate of 0.2 mL/min, and elution monitored at 214 nm. […] Absorbance was converted to peptide concentration using standard curves. […]

[4] = tested on: sheep blowflies (Lucilia cuprina); experiment: Blowfly toxicity assay, oral; format: in vivo; details: feeding to sheep blowflies; full dose-response curves not determined (Figure 4)
Description: as §1

Sarcophaga flesh flies = details: cited from earlier work
[5] = 0.1 M phosphate buffer pH 7.2, 24 h, RP-HPLC

Row | Molecule | LD50, injection into sheep blowflies [1] [pmol/g] | susceptibility to scrambling in the presence of GSH [2, 5] | Correctly Folded Toxin, In Buffer, pH 7.2 [2] [%] | Correctly Folded Toxin, With 1 Equivalent GSH, pH 7.2 [2] [%] | Lumen to Hemolymph Flux [3] [pmol/cm^2/h] | oral activity compared with native Hv1a [4] | stability in neutral media [2, 5] | ratio oral vs. injection LD50 (Sarcophaga flesh flies)
1 | [C4U,C18U]-Hv1a [1,4-SeSe-Hv1a] | 407 ± 22 | only weakly prone to scrambling | 100 | 85 | 227 ± 14 | – | – | –
2 | [C11U,C22U]-Hv1a [2,5-SeSe-Hv1a] | 455 ± 35 | only weakly prone to scrambling | 100 | 82 | – | – | – | –
3 | [C17U,C36U]-Hv1a [3,6-SeSe-Hv1a] | 446 ± 12 | more susceptible to scrambling | 95 | 60 | – | significantly lower than native Hv1a | marginal instability | –
4 | AaIT: scorpion toxin AaIT (peptide, UniProt P01497 19-88, looked up) Beta-insect excitatory toxin 1: KKNGYAVDSSGKAPECLLSNYCNNECTKVHYADKGYCCLLSCYCFGLNDDKKVLEISDTRKSYCDTTIIN | – | – | – | – | – | – | – | 714

Source: PMC6164231, “Evaluation of Chemical Strategies for Improving the Stability and Oral Toxicity of Insecticidal Peptides” (Biomedicines, 2018)
